Test results from paper PMC10046946, “Novel Phthalic-Based Anticancer Tyrosine Kinase Inhibitors: Design, Synthesis and Biological Activity” (Current Issues in Molecular Biology, 2023).

Columns and labels:
[1] = test system: K562 (chronic myelogenous leukemia); experiment: MTT cell proliferation assay, K562; type: cell-based; conditions: Homo sapiens, K562, 72 h of exposition, read-out: Anti-proliferative activity IC50, K562
Protocol: (§1) Tests to determine the effects of the synthesized compounds on cell viability and the half-maximal inhibitory concentration (IC50) were performed using the MTT assay, as described in our prior work.
(§2) The target compounds 5, 6, 8–12, 14, 15, 17–22 and 24–26 were tested for antiproliferative activity against six cancer cell lines: K562 (chronic myelogenous leukemia), HL-60 (promyelocytic leukemia), MCF-7 (breast adenocarcinoma), HepG2 (human liver cancer), A549 (lung carcinoma) and OKP-GS (renal cell carcinoma). The RPMI 1788 cells (B lymphocyte, human) were used as a control to evaluate the system toxicity of the studied compounds to normal cells. Sorafenib, nilotinib and lapatinib were utilized as reference standards for comparison.

[2] = test system: HL-60 (promyelocytic leukemia); experiment: MTT cell proliferation assay, HL-60; type: cell-based; conditions: Homo sapiens, HL-60, 72 h of exposition, read-out: Anti-proliferative activity IC50, HL-60
Protocol: as §1, §2

[3] = test system: MCF-7 (breast adenocarcinoma); experiment: MTT cell proliferation assay, MCF-7; type: cell-based; conditions: Homo sapiens, MCF7, MCF-7, 72 h of exposition, read-out: Anti-proliferative activity IC50, MCF-7
Protocol: as §1, §2

[4] = test system: HepG2 (human liver cancer); experiment: MTT cell proliferation assay, HepG2; type: cell-based; conditions: Homo sapiens, HepG2, 72 h, HepG2, 72 h of exposition, read-out: Anti-proliferative activity IC50, HepG2
Protocol: as §1, §2

A549 (lung carcinoma) = experiment: MTT cell proliferation assay, A549; type: cell-based; conditions: Homo sapiens, A549, 72 h of exposition, read-out: Anti-proliferative activity IC50, A549
Protocol: as §1, §2

[5] = test system: OKP-GS (renal cell carcinoma); experiment: MTT cell proliferation assay, OKP-GS; type: cell-based; conditions: 72 h of exposition, read-out: Anti-proliferative activity IC50, OKP-GS
Protocol: as §1, §2

[6] = test system: RPMI 1788 cells (B lymphocyte, human); experiment: MTT cell proliferation assay, normal RPMI 1788 cells; type: cell-based; conditions: normal human lymphoblastoid cells RPMI 1788, 72 h of exposition, read-out: Anti-proliferative activity IC50, RPMI 1788
Protocol: as §1, §2

EGFR = target: T1, EGFR (Homo sapiens, UniProt P00533); experiment: ADP-Glo kinase assay, EGFR; type: biochemical
T1 construct: purchased Promega
T1 sequence (P00533 25-1210): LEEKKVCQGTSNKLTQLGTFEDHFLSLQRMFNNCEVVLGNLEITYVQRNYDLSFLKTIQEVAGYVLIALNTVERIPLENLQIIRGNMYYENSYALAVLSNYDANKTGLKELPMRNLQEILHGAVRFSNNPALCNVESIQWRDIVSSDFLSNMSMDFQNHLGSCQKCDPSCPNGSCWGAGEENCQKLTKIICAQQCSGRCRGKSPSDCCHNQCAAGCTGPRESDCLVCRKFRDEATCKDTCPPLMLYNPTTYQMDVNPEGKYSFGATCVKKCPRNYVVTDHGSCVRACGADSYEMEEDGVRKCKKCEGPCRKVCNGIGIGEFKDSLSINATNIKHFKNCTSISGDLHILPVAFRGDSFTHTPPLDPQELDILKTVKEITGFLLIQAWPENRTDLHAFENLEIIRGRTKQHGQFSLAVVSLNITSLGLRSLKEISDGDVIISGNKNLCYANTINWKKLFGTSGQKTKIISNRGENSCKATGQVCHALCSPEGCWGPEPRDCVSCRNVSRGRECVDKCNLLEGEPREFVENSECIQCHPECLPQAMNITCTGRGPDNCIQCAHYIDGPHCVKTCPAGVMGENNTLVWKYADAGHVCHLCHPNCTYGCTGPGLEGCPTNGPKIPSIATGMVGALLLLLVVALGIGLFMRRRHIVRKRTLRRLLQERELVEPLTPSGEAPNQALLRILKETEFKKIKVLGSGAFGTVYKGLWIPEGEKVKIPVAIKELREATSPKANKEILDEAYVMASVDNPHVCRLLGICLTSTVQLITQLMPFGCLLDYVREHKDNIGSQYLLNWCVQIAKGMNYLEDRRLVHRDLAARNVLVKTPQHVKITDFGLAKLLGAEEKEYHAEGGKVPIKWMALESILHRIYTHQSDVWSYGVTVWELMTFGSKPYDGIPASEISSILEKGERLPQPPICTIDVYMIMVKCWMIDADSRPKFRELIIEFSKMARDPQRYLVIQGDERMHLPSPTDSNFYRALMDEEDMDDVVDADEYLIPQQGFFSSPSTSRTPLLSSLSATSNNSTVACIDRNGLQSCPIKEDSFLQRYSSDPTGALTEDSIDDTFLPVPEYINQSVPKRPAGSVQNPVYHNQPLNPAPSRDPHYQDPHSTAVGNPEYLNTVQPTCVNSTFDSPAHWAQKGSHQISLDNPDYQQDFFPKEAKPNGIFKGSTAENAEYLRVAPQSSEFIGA

HER2 = target: T2, HER2 (Homo sapiens, UniProt P04626); experiment: ADP-Glo kinase assay, HER2; type: biochemical
T2 construct: purchased Promega
T2 sequence (P04626 23-1255): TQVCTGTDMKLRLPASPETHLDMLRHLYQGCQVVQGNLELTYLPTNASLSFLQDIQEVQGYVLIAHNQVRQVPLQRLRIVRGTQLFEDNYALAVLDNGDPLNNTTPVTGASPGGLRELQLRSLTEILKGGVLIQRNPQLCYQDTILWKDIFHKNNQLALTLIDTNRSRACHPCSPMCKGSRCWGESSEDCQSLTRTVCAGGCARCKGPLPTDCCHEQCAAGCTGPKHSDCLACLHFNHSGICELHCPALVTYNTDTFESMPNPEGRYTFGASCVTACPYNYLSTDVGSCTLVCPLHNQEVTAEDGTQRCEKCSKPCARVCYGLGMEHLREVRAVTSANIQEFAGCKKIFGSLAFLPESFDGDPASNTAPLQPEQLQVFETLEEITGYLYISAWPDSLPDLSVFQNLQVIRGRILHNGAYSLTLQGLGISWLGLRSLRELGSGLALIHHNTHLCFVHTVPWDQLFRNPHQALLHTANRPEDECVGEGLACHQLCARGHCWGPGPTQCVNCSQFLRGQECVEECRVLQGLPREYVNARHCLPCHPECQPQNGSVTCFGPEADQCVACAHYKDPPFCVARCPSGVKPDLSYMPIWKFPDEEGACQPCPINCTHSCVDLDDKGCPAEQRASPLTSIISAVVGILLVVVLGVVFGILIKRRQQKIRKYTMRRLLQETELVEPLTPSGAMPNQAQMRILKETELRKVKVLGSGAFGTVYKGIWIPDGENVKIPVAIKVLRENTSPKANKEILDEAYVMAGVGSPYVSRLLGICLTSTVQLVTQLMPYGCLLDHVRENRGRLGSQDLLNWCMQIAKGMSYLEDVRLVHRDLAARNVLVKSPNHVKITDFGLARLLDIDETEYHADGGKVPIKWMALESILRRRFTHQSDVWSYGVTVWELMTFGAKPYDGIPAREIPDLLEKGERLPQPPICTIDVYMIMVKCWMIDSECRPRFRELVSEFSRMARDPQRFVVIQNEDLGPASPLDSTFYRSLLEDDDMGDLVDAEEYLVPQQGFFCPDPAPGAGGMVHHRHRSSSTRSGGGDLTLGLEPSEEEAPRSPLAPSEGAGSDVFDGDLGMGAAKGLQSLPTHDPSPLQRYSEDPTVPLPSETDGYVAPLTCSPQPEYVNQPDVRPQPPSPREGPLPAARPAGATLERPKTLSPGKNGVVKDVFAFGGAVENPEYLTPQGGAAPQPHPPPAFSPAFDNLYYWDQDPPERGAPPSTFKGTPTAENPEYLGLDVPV
Protocol: (§3) The ADP-Glo kinase assay (Promega, Madison, WI, USA) was used to screen compounds 5, 8–10, 14, 17, 19 and 24 for the tyrosine kinase (Kinase Selectivity Profiling System TK-1, Promega, Madison, WI, USA) and serine/threonine kinase (Kinase Selectivity Profiling System Other/CK-1, Promega, Madison, WI, USA) inhibition effects according to the manufacturer’s technical manual. The luminescence data were analyzed as described in our prior work.
(§4) The selectivity of the potential kinase inhibitor against a specific protein kinase or a specific family of kinases was investigated using the Kinase Selectivity Profiling System TK-1, Other/CK-1 and ADP-Glo™ Kinase assay kit (Promega, Madison, WI, USA).

HER4 = target: T3, HER4 (Homo sapiens, UniProt Q15303); experiment: ADP-Glo kinase assay, HER4; type: biochemical
T3 construct: purchased Promega
Protocol: as §3, §4

[7] = target: T4, IGF1R (insulin-like growth factor 1 receptor) (Homo sapiens, UniProt P08069); experiment: ADP-Glo kinase assay, IGF1R; type: biochemical
T4 construct: purchased Promega
Protocol: as §3, §4

InsR (insulin receptor) = target: T5, InsR (insulin receptor) (Homo sapiens, UniProt P06213); experiment: ADP-Glo kinase assay, InsR; type: biochemical
T5 construct: purchased Promega
T5 sequence (P06213 28-1382): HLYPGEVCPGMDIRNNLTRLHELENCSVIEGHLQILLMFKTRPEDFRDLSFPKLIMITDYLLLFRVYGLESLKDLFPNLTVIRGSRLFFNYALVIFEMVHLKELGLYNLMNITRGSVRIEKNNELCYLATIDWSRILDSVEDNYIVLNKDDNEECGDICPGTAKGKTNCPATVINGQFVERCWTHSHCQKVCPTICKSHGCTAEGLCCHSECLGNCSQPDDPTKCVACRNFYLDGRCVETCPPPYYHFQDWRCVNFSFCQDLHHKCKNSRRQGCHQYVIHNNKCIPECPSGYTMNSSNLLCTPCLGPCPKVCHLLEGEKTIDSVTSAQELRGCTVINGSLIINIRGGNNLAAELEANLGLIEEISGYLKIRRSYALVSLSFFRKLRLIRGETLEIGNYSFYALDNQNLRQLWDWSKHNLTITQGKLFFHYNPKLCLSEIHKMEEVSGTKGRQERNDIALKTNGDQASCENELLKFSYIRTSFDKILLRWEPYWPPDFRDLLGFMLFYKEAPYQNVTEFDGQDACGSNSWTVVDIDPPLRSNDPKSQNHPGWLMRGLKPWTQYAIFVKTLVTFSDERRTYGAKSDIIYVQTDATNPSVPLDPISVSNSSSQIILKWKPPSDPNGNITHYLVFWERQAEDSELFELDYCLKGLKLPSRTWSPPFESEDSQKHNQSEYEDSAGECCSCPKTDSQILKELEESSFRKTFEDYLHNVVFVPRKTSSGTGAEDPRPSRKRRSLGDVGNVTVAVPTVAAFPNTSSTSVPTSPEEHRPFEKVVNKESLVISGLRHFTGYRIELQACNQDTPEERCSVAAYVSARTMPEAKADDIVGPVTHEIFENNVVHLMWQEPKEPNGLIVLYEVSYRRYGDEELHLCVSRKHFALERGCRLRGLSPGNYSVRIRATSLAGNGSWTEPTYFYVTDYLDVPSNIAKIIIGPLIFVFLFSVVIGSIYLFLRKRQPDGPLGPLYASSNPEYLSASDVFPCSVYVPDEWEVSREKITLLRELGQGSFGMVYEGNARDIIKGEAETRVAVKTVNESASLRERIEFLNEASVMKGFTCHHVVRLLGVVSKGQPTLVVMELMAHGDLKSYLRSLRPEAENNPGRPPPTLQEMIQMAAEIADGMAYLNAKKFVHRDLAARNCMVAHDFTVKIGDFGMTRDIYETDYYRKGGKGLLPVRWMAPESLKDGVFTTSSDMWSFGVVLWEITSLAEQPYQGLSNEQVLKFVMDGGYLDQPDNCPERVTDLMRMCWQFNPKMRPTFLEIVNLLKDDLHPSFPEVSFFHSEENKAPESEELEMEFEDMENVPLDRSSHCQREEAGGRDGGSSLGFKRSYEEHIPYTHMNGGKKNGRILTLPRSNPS
Protocol: as §3, §4

KDR (VEGFR-2) = target: T6, KDR (VEGFR-2) (Homo sapiens, UniProt P35968); experiment: ADP-Glo kinase assay, KDR; type: biochemical
T6 construct: purchased Promega

PDGFRα = target: T7, PDGFRα (Homo sapiens, UniProt P16234); experiment: ADP-Glo kinase assay, PDGFRα; type: biochemical
T7 construct: purchased Promega
T7 sequence (P16234 24-1089): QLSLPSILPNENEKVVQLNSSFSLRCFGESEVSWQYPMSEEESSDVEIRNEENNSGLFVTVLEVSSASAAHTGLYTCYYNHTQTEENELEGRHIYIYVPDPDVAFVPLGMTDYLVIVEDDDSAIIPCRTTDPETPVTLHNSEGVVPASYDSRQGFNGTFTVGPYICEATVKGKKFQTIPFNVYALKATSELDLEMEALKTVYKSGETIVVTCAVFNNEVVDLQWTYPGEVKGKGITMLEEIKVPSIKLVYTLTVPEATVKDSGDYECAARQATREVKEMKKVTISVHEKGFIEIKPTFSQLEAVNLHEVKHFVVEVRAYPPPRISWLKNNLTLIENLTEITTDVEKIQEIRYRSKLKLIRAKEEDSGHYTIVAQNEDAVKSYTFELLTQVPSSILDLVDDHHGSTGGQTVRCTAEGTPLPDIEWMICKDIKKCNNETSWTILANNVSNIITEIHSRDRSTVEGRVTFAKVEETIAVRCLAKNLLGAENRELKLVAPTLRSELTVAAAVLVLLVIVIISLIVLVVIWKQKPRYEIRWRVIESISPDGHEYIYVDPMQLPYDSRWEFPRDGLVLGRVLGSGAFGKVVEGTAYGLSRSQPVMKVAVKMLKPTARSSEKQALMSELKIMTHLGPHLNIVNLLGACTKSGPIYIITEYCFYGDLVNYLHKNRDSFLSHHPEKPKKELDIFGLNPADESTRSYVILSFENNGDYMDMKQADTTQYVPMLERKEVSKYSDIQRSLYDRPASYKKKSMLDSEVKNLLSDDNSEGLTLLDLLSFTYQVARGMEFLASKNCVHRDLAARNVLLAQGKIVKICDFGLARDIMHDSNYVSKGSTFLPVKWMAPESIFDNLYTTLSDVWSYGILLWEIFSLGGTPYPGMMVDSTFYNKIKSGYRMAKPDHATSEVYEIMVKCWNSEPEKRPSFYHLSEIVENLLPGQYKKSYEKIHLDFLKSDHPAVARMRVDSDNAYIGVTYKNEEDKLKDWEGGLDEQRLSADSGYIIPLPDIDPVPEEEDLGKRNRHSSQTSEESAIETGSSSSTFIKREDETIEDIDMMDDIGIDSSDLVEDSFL
Protocol: as §3, §4

PDGFRβ = target: T8, PDGFRβ (Homo sapiens, UniProt P09619); experiment: ADP-Glo kinase assay, PDGFRβ; type: biochemical
T8 construct: purchased Promega
Protocol: as §3, §4

Aurora A = target: T9, Aurora A (Homo sapiens, UniProt O14965); experiment: ADP-Glo kinase assay, Aurora A; type: biochemical
T9 construct: purchased Promega
T9 sequence (O14965 1-403): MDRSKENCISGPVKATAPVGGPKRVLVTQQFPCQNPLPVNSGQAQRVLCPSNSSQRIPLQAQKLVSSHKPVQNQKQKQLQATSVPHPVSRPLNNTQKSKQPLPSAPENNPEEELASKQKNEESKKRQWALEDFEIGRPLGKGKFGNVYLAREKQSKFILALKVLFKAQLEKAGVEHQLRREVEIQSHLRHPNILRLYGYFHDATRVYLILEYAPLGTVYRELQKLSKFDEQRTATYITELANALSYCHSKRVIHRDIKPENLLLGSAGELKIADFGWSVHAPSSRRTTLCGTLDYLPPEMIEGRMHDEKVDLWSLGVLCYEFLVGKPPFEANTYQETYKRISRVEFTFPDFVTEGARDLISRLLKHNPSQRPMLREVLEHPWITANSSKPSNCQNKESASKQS
Protocol: as §3, §4

Aurora B = target: T10, Aurora B (Homo sapiens, UniProt Q96GD4); experiment: ADP-Glo kinase assay, Aurora B; type: biochemical
T10 construct: purchased Promega
Protocol: as §3, §4

Row | SMILES | IC50 [1] [µM] | IC50 [2] [µM] | IC50 [3] [µM] | IC50 [4] [µM] | IC50 (A549 (lung carcinoma)) [µM] | IC50 [5] [µM] | inhibition at 10 µM (EGFR) [%] | inhibition at 10 µM (HER2) [%] | inhibition at 10 µM (HER4) [%] | inhibition at 10 µM [7] [%] | inhibition at 10 µM (InsR (insulin receptor)) [%] | inhibition at 10 µM (KDR (VEGFR-2)) [%] | inhibition at 10 µM (PDGFRα) [%] | inhibition at 10 µM (PDGFRβ) [%] | inhibition at 10 µM (Aurora A) [%] | inhibition at 10 µM (Aurora B) [%] | melting point [°C] | IC50 [6] [µM]
1 | O=C(Nc1cccc(C(F)(F)F)c1)c1cccc(C(=O)N2CCN(C(=O)c3ccccc3F)CC2)c1 [Compound 8, 3-(4-(2-Fluorobenzoyl)piperazine-1-carbonyl)-N-(3-(trifluoromethyl)phenyl)benzamide] | 18.3 ± 1.15 | 18.2 ± 1.02 | 24.7 ± 5.95 | 35.49 ± 0.34 | > 50 | > 50 | 14 | 0 | 0 | 0 | 6 | 34 | 0 | 0 | 0 | 0 | 145 to 147 | 24.9 ± 1.17
2 | O=C(Nc1cccc(C(F)(F)F)c1)c1cccc(C(=O)N2CCN(C(=O)c3cccc(F)c3)CC2)c1 [Compound 9, 3-(4-(3-Fluorobenzoyl)piperazine-1-carbonyl)-N-(3-(trifluoromethyl)phenyl)benzamide] | 21 ± 0.59 | 21.9 ± 1.59 | 26.3 ± 3.71 | 33.3 ± 3.45 | > 50 | > 50 | 90 | 64 | 37 | 0 | 0 | 33 | 20 | 24 | 0 | 0 | 97 to 101 | 26.3 ± 1.88
3 | Cc1cn(-c2cc(NC(=O)c3ccc(C(=O)Nc4cc([N+](=O)[O-])ccc4C)cc3)cc(C(F)(F)F)c2)cn1 [Compound 24, N1-(3-(4-methyl-1H-imidazol-1-yl)-5-(trifluoromethyl)phenyl)-N4-(2-methyl-5-nitrophenyl)terephthalamide] | 17 ± 0.2 | 26.4 ± 3.35 | 15.5 ± 1.16 | > 50 | > 50 | > 50 | 2 | 49 | 3 | 0 | 0 | 0 | 0 | 0 | 0 | 3 | 269 to 270 | 36.5 ± 0.86

More lines, main results first:

Row | IC50 [1] [µM] | IC50 [2] [µM] | IC50 [3] [µM] | IC50 [4] [µM] | IC50 (A549 (lung carcinoma)) [µM] | IC50 [5] [µM] | inhibition at 10 µM (EGFR) [%] | inhibition at 10 µM (HER2) [%] | inhibition at 10 µM (HER4) [%] | inhibition at 10 µM [7] [%] | inhibition at 10 µM (InsR (insulin receptor)) [%] | inhibition at 10 µM (KDR (VEGFR-2)) [%] | inhibition at 10 µM (PDGFRα) [%] | inhibition at 10 µM (PDGFRβ) [%] | inhibition at 10 µM (Aurora A) [%] | inhibition at 10 µM (Aurora B) [%] | melting point [°C] | SMILES | IC50 [6] [µM]
4 | 26 ± 2.38 | 35.8 ± 3.19 | 38.5 ± 1.95 | 23.2 ± 1.81 | > 50 | 13.2 ± 1.3 | 1 | 19 | 0 | 0 | 0 | 33 | 17 | 0 | 0 | 0 | 304 to 306 | Cc1cn(-c2cc(NC(=O)c3cccc(C(=O)Nc4cc(-n5cnc(C)c5)cc(C(F)(F)F)c4)c3)cc(C(F)(F)F)c2)cn1 [Compound 10, N1,N3-bis(3-(4-methyl-1H-imidazol-1-yl)-5-(trifluoromethyl)phenyl)isophthalamide] | 13 ± 0.3
5 | > 50 | > 50 | > 50 | > 50 | > 50 | > 50 | 4 | 39 | 2 | 0 | 17 | 16 | 19 | 20 |  |  | 202 to 205 | COc1ccc(C(=O)N2CCN(C(=O)c3ccc(C(=O)Nc4cccc(C(F)(F)F)c4)cc3)CC2)cc1 [Compound 19, 4-(4-(4-Methoxybenzoyl)piperazine-1-carbonyl)-N-(3-(trifluoromethyl)phenyl)benzamide] | > 50
6 |  |  |  |  |  |  |  |  |  |  |  |  |  |  | 68 | 90 |  | CCN(CC)CCNC(=O)c1c(C)[nH]c(/C=C2\C(=O)Nc3ccc(F)cc32)c1C [Sunit., sunitinib, reference compound] | 
